From patent US20200297621A1, “Topical Compositions for Neuropathic Pain” (GOOD PHARMACEUTICAL DEVELOPMENT COMPANY, LLC, priority 2016, published 2020)
“And” between values parts separate entries of the source, which are not always exact repeats. Equal values may be shown once.

Assay: Stability testing of the topical gabapentin/ketamine composition
Type: physicochemical
Set-up: Assay: unit not given beside the values
Conditions: for Assay (avg): avg of the two determinations; for Assay: single determinations

## NCC1(CC(=O)O)CCCCC1 [Gabapentin, 1-(aminomethyl)cyclohexane acetic acid]
2 wk, 25/60
  Assay (avg): 106.6
2 wk, 25/60, acetic acid
  Assay: 105.4 and 107.8
2 wk, 40/75
  Assay (avg): 105.8
2 wk, 40/75, acetic acid
  Assay: 106.1 and 105.5
T = 0
  Assay (avg): 111.3
T = 0, acetic acid
  Assay: 111.9 and 110.7

## COC(=O)c1ccc(O)cc1 [Methylparaben]
2 wk, 25/60
  Assay (avg): 106.1
  Assay: 108.2 and 104.1
2 wk, 40/75
  Assay (avg): 108.1
  Assay: 109.6 and 106.7
T = 0
  Assay (avg): 112.0
  Assay: 111.1 and 112.9

## CNC1(c2ccccc2Cl)CCCCC1=O.Cl (racemic) [Ketamine HCl, (±) 2-(o-chlorophenyl)-2-(methylamino)-cyclohexanone]
2 wk, 25/60
  Assay (avg): 105.8
  Assay: 105.9 and 105.7
2 wk, 40/75
  Assay (avg): 105.2
  Assay: 105.2
T = 0
  Assay (avg): 106.3
  Assay: 108.8 and 103.9
